Assay results taken from patent US20090238760A1, “ANTISPERMATOGENIC, SPERMICIDAL AND/OR ANTIFUNGAL COMPOSITION AND METHODS OF USING THE SAME” (Research Triangle Institute, priority 2006, published 2009).
Where two headings read alike, the source gives them in different places. Each block holds one molecule with its values, some of them ahead of it.

Columns and labels:
[1] = target: testes receptor (testis membranes); assay: Displacement of [125I]074(d) from rat testis membranes (Scatchard / displacement binding assay)
Experimental: • 1. […] Homogenize the tissue for 20 sec with a Polytron tissue homogenizer (probe no. PTA 10S, 12 mm) at a medium setting (4-6 on a rheostat scale of 10) or until a smooth suspension is obtained. • 4. Pour the homogenate into a chilled 50 ml, centrifuge tube, and centrifuge at 0-4° C. and 500×g ( 1540 rpm in an […]) for 10 min. • 5. Decant the supernatant into clean 10 ml, centrifuge tubes, using multiple tubes as necessary. • 6. Centrifuge the decanted supernatant at 0-4° C. and 17000×g ( 11900 rpm in a Sorvall SS-34 rotor) for 12 min. • 7. Decant and discard the supernatants. […] Perform a total protein assay on resuspended pellet. The […] assay measures the binding of a radiolabeled test compound, over a wide concentration range, to the membrane receptors in both the absence (total binding) and presence (non-specific binding) of non-radioactive compound. Calculation of the resulting assay data yields the Kd of the test compound. • 1. Label 1.2 mL polypropylene tubes in duplicate for each [^125I]074(d) standard total binding and non-specific binding (NSB) determination and place in 96-well matrix test tube racks. Label liquid scintillation vials for free radioactivity determination. • 2. Prepare dilutions of the [^125I]074(d) ranging in concentration from approximately 1 to 200 nM or other desired concentration range. Prepare cold drug at a concentration of at least 100 times the level of the highest level of radiolabeled standard (e.g. 20-40 µM) for NSB determination. • 3. Set up the assay as follows: • 4. […] Add 0.1 mL (200 μg) to each assay tube. Vortex to mix. • 5. Incubate assay at 25° C. for 2 hours while gently shaking at 30-35 rpm (e.g. Precision Scientific Reciprocal Shaker or equivalent). • 6. […] Near the end of the incubation period, place a blank wash plate in the cell harvester (model MPXR-96T, Brandel Scientific, Gaithersburg, Md.). Place cold wash buffer in the reservoir supplying the harvester. Prime the harvester with buffer. Replace the dummy filter plate with the pre-soaked plate. • 8. At the end of the incubation period, remove tubes from incubator. Place the harvester prongs into the tubes, and vacuum to deposit the reaction mixture onto the filter plate. Rinse the reaction tubes 3-4 times with cold buffer and vacuum through the filter plate. • 9. Remove the filter plate from the harvester and allow it to dry thoroughly, using a warm oven if desired. • 10. Seal the bottom of the plate. Insert the plate into the cocktail dispenser and add cocktail (Micro-Scint 20, Perkin Elmer LAS, Shelton, Conn.) to each well • 11. Seal the top of the plate. Allow the plate to sit at least one hour or overnight and then count. • 1. For each level of standard, determine the CP Ms of free (essentially equivalent to total radioactivity added), total bound, and non-specific bound (NSB) compound. • 2. Subtract the NSB CPMs from the corresponding total CP Ms for each standard level to determine specific bound for each standard level. • 3. Convert the free, specific bound and non-specific bound CPMs to a mass basis (e.g. pM) using the specific activity, counter efficiency for the isotope ( 70% for ^125I in a Packard Model 1900TR. Liquid Scintillation Analyzer) and assay dilution factor of the labeled material. • 4. For each standard level, divide the level of compound specifically bound by the corresponding free amount added. • 5. For […] analysis, perform a linear regression analysis where x=specific bound compound and y=ratio of corresponding specific bound/free compound added. • 6. The Kd=-1/slope of the line generated. • 7. For illustrative purposes, a binding isotherm graph can be generated where x=free compound and y=total bound, non-specific bound and specific bound compound. The displacement assay measures the ability of a test drug, over a wide concentration range, to compete with and displace a constant amount of a known radiolabeled drug bound to the testes receptor. Calculation of the resulting assay data yields the Ki of the test drug. • 1. […]

[2] = test system: testes / spermatogenesis in Swiss (CD-1) mice; settings: in words, Cook et al., cited from earlier work
[3] = test system: testes / spermatogenesis in rats; settings: single oral dose of 30 mg/kg to rats, within 24 h; cited from earlier work
spermatogenesis = settings: oral administration to animals; cited from earlier work
[4] = test system: testes / spermatogenesis in Swiss (CD-1) mice; assay: Spermatogenic Index test: testes weight and spermatogenic index after a single oral dose; format: in vivo, mouse; settings: male CD-1 mice, mean ± SEM; for Spermatogenic Index: 72 h, scale 1 to 6, 5 to 6 normal, vehicle control 5.5 ± 0.16; for Testes Weight: killed 72 h later, vehicle control 204 ± 11.9
Experimental: The compounds of the invention were tested in mice for their effects on spermatogenesis three days after a single oral dose by the procedure described in Cook et al (J. Med. […] Compounds active in this test have been shown also to be anti-fertility compounds. Compounds were screened for antispermatogenic activity by dosing male mice on day 1 with a gavage dose of control vehicle, positive control (compound 1) or compound of the invention. At 72 h after dosing, animals were killed and the testes were excised, trimmed of fat, and weighed. One testis was examined histologically and rated for spermatogenic potential using the Spermatogenic Index [[…]. Noden, J. Cherry and […]. Reprod. […], 72, 277 (1984)], which is a semiquantitative estimate of the sperm producing ability of the testes. The index is based on histological appearance of the spermatogenic cells in the seminiferous tubules. A scale of 1 to 6 is used with 5 to 6 being the normal status. A second assessment was based on the weight of the testes. […] Compounds were given orally to 8-week old male CD-1 mice in a single dose. Seventy-two hours later the animals were killed and the testes weighed. One testis was subjected to histological analysis and scored according to the Spermatogenic Index (SI) of Fail (see Cook et ah, J. Med. […] RTI-4587-056(l), and a vehicle control group was also analyzed.

[5] = average Ki, 25° C., 2 hours, for 074(d) the Ki is a Kd
[6] = J. Med. Chem., 1997, 40, 2111-2112

SMILES: CCN1CCC2C(C1)c1ccc(C)cc1C2c1ccc(C)cc1 (stereo not drawn) [RTI-4587-002(d)]
Ki ([1]; as stated in the text, listed as -002(d)): 6.1 µM | in vivo activity (antispermatogenic) ([2]; J. Med. Chem., 1997, 40, 2111-2112, listed as -002(d)): bioactive

SMILES: CCN1CC[C@@H]2[C@@H](c3ccc(C)cc3)c3cc(C)ccc3[C@@H]2C1.Cl [Sandoz 20-438]
weights of the testes [3]: drastically reducing | inhibition of spermatogenesis (spermatogenesis): reversible inhibition of spermatogenesis

Ki [1]: ~0.54 µM | Ki [1, 5]: 0.54 µM
SMILES: CCN1CCC2C(C1)c1ccc(C)cc1C2c1ccc(C(=O)O)cc1 (stereo not drawn) [RTI-4587-054(d)]

SMILES: C#Cc1cc2c(cc1C)[C@@H](c1ccc(C(=O)OC)cc1)[C@@H]1CCN(CC)C[C@H]21 [RTI-4587-107, (4aS, 5R, 9bS)-5-(4-Carbomethoxyphenyl)-2-ethyl-8-ethynyl-2,3,4,4a,5,9b-hexahydro-7-methyl-1H-indeno[1,2-c]pyridine]
Spermatogenic Index ([4]; single oral dose 20 mg/kg, n=5): 1.56 ± 0.20 | Testes Weight ([4]; single oral dose 20 mg/kg, n=5): 134.4 ± 7.0 mg

Ki [1, 5]: 207 µM
SMILES: CCN1CCC2C(C1)c1ccc(C)cc1C2c1ccc(C(=O)OC)cc1 (stereo not drawn) [RTI-4587-056(d)]

Ki [1, 5]: ~0.027 µM | Ki ([1]; average Ki, 25° C., 2 hours, for 074(d) the Ki is a Kd, listed as 074(d)): 0.027 µM
SMILES: CCN1CCC2C(C1)c1cc(I)c(C)cc1C2c1ccc(C(=O)O)cc1 (stereo not drawn) [RTI-4587-074(d)]
in vivo activity (antispermatogenic) [2, 6]: much greater in vivo activity

SMILES: CCN1CC[C@H]2[C@H](c3ccc(C(=O)OC)cc3)c3cc(C)c(C#Cc4ccccc4)cc3[C@H]2C1 [RTI-4587-109, (4aS, 5R,9bS)-5-(4-Carbomethoxyphenyl)-2-ethyl-2,3,4,4a,5,9b-hexahydro-7-methyl-8-(2-phenylethynyl)-1H-indeno[1,2-c]pyridine]
Spermatogenic Index ([4]; single oral dose 20 mg/kg, n=5): 4.26 ± 0.12 | Testes Weight ([4]; single oral dose 20 mg/kg, n=5): 168.1 ± 16.4 mg

Ki [1, 5]: 2.7 µM
SMILES: CCN1CC[C@H]2[C@H](c3ccc(C(=O)OC)cc3)c3cc(C)ccc3[C@H]2C1 [RTI-4587-056(l)]
Spermatogenic Index ([4]; single oral dose 30 mg/kg, n=4): 3.69 ± 0.07 | Testes Weight ([4]; single oral dose 30 mg/kg, n=4): 173 ± 8.8 mg

SMILES: CCN1CCC2C(C1)c1ccc(C)cc1C2c1ccc(C)cc1 (stereo not drawn) [RTI-4587-002(l)]
Ki ([1]; as stated in the text, listed as -002(l)): 66 µM | Ki [1, 5]: 65.6 µM | in vivo activity (antispermatogenic) ([2]; J. Med. Chem., 1997, 40, 2111-2112, listed as -002(l)): bioinactive

Ki [1, 5]: 67.3 µM
SMILES: CCN1CC[C@@H]2[C@@H](c3ccc(C(=O)OC)cc3)c3cc(C)c(I)cc3[C@@H]2C1 [RTI-4587-073(d)]

Ki [1, 5]: 0.32 µM
SMILES: CCN1CC[C@H]2[C@H](c3ccc(C(=O)OC)cc3)c3cc(C)c(I)cc3[C@H]2C1 [RTI-4587-073(l), (4aS, 5R, 9bS)-5-(4-Carbomethoxyphenyl)-2-ethyl-2,3,4,4a,5,9b-hexahydro-8-iodo-7-methyl-1H-indeno[1,2-c]pyridine]
Spermatogenic Index ([4]; single oral dose 1 mg/kg, n=5): 2.92 ± 0.15 | Testes Weight ([4]; single oral dose 1 mg/kg, n=5): 144 ± 4.9 mg

Ki [1]: ~330 µM | Ki [1, 5]: 329 µM
SMILES: CCN1CCC2C(C1)c1ccc(C)cc1C2c1ccc(C(=O)O)cc1 (stereo not drawn) [RTI-4587-054(l)]
in vivo activity (antispermatogenic) [2, 6]: inactive
